From patent publication US6180650A, “Heterosubstituted pyridine derivatives as PDE 4 inhibitors” (Merck Frosst Canada & Co., priority 2000, dated 2001) come the findings set out here.

Each structure is given as a SMILES string.

This assay deals with T1, GST-Met 248 PDE 4a (Homo sapiens, UniProt P27815).
T1 construct: phosphodiesterase IVa (met-248); made in house; host or cells: baculovirus/Sf-9
T1 sequence (P27815 248-886 limits assumed): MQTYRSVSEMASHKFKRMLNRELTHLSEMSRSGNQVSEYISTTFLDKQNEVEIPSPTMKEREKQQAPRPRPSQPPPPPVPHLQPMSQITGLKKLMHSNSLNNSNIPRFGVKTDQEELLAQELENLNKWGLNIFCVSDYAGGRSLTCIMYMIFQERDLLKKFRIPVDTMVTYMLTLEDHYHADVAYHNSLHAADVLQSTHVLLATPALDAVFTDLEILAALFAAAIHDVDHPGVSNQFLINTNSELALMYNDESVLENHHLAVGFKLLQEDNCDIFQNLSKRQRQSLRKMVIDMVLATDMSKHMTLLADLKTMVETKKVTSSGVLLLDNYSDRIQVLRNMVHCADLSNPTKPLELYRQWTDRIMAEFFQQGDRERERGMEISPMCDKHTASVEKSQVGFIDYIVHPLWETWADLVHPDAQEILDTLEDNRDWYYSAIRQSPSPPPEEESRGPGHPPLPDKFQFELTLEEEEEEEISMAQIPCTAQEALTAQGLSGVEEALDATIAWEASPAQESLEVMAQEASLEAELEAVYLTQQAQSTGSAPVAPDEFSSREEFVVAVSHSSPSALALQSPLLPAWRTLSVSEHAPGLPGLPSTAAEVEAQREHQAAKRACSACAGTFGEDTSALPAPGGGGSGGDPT
As to the kind of experiment: SPA based PDE activity assay (IC50, purified GST fusion protein of human recombinant phosphodiesterase IVa (met-248), baculovirus/Sf-9). It is filed as biochemical. To be noted: 100 nM cAMP, 30° C., pH 7.5, 10 min; approximated by non-linear regression of a ten point titration. Here is the method:
SPA BASED PDE ACTIVITY ASSAY PROTOCOL Compounds which inhibit the hydrolysis of cAMP to AMP by the type-IV cAMP-specific phosphodiesterases were screened in 96-well plate format as follows: In a 96 well-plate at 30° C. was added the test compound (dissolved in 2 μl DMSO), […] of substrate buffer containing [2,8-^3 H] adenosine 3',5'-cyclic phosphate (cAMP, 100 nM to 50 μM), 10 mM MgCl2, 1 mM EDTA, 50 mM Tris, pH 7.5. The reaction was initiated by the addition of […] of human recombinant PDE-IV (the amount was controlled so that ~10% product was formed in 10 min.). The reaction was stopped after 10 min. by the addition of 1 mg of PDE-SPA beads (Amersham). The product AMP generated was quantified on a Microbeta 96-well plate counter. The signal in the absence of enzyme was defined as the background. 100% activity was defined as the signal detected in the presence of enzyme and DMSO with the background subtracted. Percentage of inhibition was calculated accordingly. IC50 value was approximated with a non-linear regression fit using the standard 4-parameter/multiple binding sites equation from a ten point titration. IC50 values shown in Table 7 were determined with 100 nM cAMP using the purified GST fusion protein of the human recombinant phosphodiesterase IVa (met-248) produced from a baculovirus/Sf-9 expression system.
Take `CC(C)(COc1ccc(C(Cc2cc[n+]([O-])cc2)c2ccc(OC(F)F)c(OC(F)F)c2)cn1)c1ccc(F)cc1` (racemic) [Example 23, 4-{2-[3,4-Bis(difluoromethoxy)phenyl]-2-{6-[2-methyl-2-(4-fluorophenyl)propyloxy]3-pyridyl}ethyl}pyridine-N-oxide]: the IC50 amounted to 3.2 nM.
Turning to `[O-][n+]1ccc(CC(c2ccc(Oc3ccc(OC(F)(F)F)cc3)nc2)c2ccc(OC(F)F)c(OC(F)F)c2)cc1` (racemic) [Example 1, 4-{2-[3,4-Bis(difluoromethoxy)phenyl]-2-{6-[4-(trifluoromethoxy)phenoxy]3-pyridyl}ethyl}pyridine-N-oxide], the concentration for half-maximal inhibition (IC50) came out at 2.85 nM.
For the compound `CC(C)(Cc1ccccc1)Oc1ccc(C(Cc2cc[n+]([O-])cc2)c2ccc(OC(F)F)c(OC(F)F)c2)cn1` (racemic) [Example 28, 4-{2-[3,4-Bis(difluoromethoxy)phenyl]-2-[6-(1,1-dimethyl-2-phenylethoxy)3-pyridyl]ethyl}pyridine-N-oxide], the IC50 was 0.2 nM.
For the compound `[O-][n+]1ccc(CC(c2ccc(OCc3ccc(F)c(F)c3)nc2)c2ccc(OC(F)F)c(OC(F)F)c2)cc1` (racemic) [Example 16, 4-{2-[3,4-Bis(difluoromethoxy)phenyl]-2-[6-(3,4-difluorobenzyloxy)3-pyridyl]ethyl}pyridine-N-oxide], the IC50 was 1.43 nM.

In general, IC50 refers to the concentration that inhibits the measured activity by half.
